Assay results: PubChem BioAssay (NCI)
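Test compounds were applied to cells in 96-well plates for 48 hours at 5 doses. At the GI50, growth is halved. TGI is the concentration that stops growth completely.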

Tests used:
Assay in all cases: inhibition of tumour cell growth, NCI panel, 48 h
CAKI-1 renal = system: CAKI-1 renal
HL-60(TB) leukemia = system: HL-60(TB) leukemia
MALME-3M melanoma = system: MALME-3M melanoma
NCI-H23 lung = system: NCI-H23 lung
OVCAR-5 ovarian = system: OVCAR-5 ovarian
SK-OV-3 ovarian = system: SK-OV-3 ovarian
TK-10 renal = system: TK-10 renal
UACC-257 melanoma = system: UACC-257 melanoma
UO-31 renal = system: UO-31 renal
NCI-H226 lung = system: NCI-H226 lung

Compound	GI50 (CAKI-1 renal) [µM]	TGI (CAKI-1 renal) [µM]	GI50 (HL-60(TB) leukemia) [µM]	TGI (HL-60(TB) leukemia) [µM]	GI50 (MALME-3M melanoma) [µM]	TGI (MALME-3M melanoma) [µM]	GI50 (NCI-H23 lung) [µM]	TGI (NCI-H23 lung) [µM]	GI50 (OVCAR-5 ovarian) [µM]	TGI (OVCAR-5 ovarian) [µM]	GI50 (SK-OV-3 ovarian) [µM]	TGI (SK-OV-3 ovarian) [µM]	GI50 (TK-10 renal) [µM]	TGI (TK-10 renal) [µM]	GI50 (UACC-257 melanoma) [µM]	TGI (UACC-257 melanoma) [µM]	GI50 (UO-31 renal) [µM]	TGI (UO-31 renal) [µM]	TGI (NCI-H226 lung) [µM]	GI50 (NCI-H226 lung) [µM]
OC(c1cc(-c2cccc(Cl)c2)nc2ccccc12)C1CCCCN1 (stereo not given)	1.24	2.72	1.72	4.22	2.05	3.77	2.01	4.2	1.62	3.29	3.54	12.2	2.12	4.48	1.85	3.33	1.36	2.74	–	–
COc1ccc2c(c1)[n+]([O-])c(-c1ccc([N+](=O)[O-])cc1)c(N)[n+]2[O-]	–	> 100	–	> 100	–	> 100	–	> 100	–	> 100	–	> 100	–	–	–	> 100	–	> 100	> 100	–
CC(=O)Nc1ccc(/C=c2\sc3nnc(CCC(=O)Nc4ccccc4Cl)n3c2=O)cc1	–	> 100	–	41	–	> 100	–	> 100	–	> 100	–	> 100	–	> 100	–	> 10	–	> 100	52.7	–
Cc1cc(Cl)cc2c(N=Nc3ccc(S(N)(=O)=O)cc3)c(O)[nH]c12	> 25	> 25	> 25	> 25	> 25	> 25	> 25	> 25	> 25	> 25	> 25	> 25	> 25	> 25	> 25	> 25	> 25	> 25	> 25	> 25
CSC1=Nc2c(c(C)c(-c3ccccc3)n2CCCN2CCCCC2)C2=NC(=O)C[C@H](C)N12	12.1	44.5	2.51	> 19.8	2.63	9.61	3.08	> 46.4	11.3	> 100	2.66	8.57	3.98	> 30.6	4.37	27.5	6.35	26	> 79.7	4.5
COc1cc2nccc(Oc3ccc(NC(=O)NC4CC4)c(Cl)c3)c2cc1C(N)=O	23.9	> 64.2	> 100	> 100	40.7	> 100	15.6	> 74.6	47.4	> 100	17.5	94.6	14.5	> 78.5	27	> 93.7	5.55	> 100	> 43.4	1.1
NS(=O)(=O)OCC1OC(n2cnc3cncnc32)C(O)C1O (stereo not given)	0.0181	0.0463	0.0556	–	0.0469	0.272	0.0175	0.0525	< 0.0114	0.0747	0.0343	0.137	0.0214	0.0713	0.0431	0.244	0.0256	0.106	0.222	0.0344
COC(=O)C(Cc1nc2ccccc2[nH]c1=O)/C(=N\NC(C)(C)C)C(=O)Nc1c(C)cc(Br)cc1C (stereo not given)	–	88.9	–	–	–	62.2	–	78	–	> 100	–	> 100	–	–	–	> 100	–	> 100	54.4	–
CN1CCC(COc2cnc(-c3cccc(Cn4nc(-c5cccc(C#N)c5)ccc4=O)c3)nc2)CC1	3.15	13.8	2	4.02	1.83	3.63	4.93	21.6	7.69	27.5	5.93	18.5	2.65	6.15	1.81	3.52	2.26	5.79	24.8	7.18
Cn1cc(C2=C(c3ccccc3[N+](=O)[O-])C(=O)NC2=O)c2ccccc21	3.87	> 20.8	2.11	13.9	9.55	> 20.8	7.25	> 25	8.64	> 25	4.79	> 25	5.58	18.6	7.11	17.7	5.28	> 20.5	> 20.3	4.37
Nc1c(C(=O)c2ccc(-c3cccnc3)cc2)cnn1-c1ccc(F)cc1	> 25	> 25	> 13.8	> 25	11	> 20.3	> 22.7	> 25	> 25	> 25	> 14.2	> 23	> 19.3	> 25	> 22.4	> 25	> 12.8	> 22	> 25	> 16.2
Cc1cccc(-c2[nH]ncc2-c2ccc3ncccc3n2)n1	> 19	> 25	10	> 23.7	> 25	> 25	14.2	> 25	9.82	> 25	> 21.9	> 25	13	> 25	> 21.3	> 25	6.17	> 25	> 25	9.92
C=CCC(N[C@@H](CO)c1ccccc1)c1cn(Cc2ccccc2Cl)c(=O)n(Cc2ccccc2Cl)c1=O (stereo not given in full)	73.6	> 100	93.2	> 100	> 100	> 100	> 100	> 100	> 100	> 100	> 100	> 100	> 100	> 100	> 100	> 100	> 100	> 100	> 100	> 100
CN(C)c1ccc(/C=C/c2ccnc3c(O)cccc23)cc1	0.401	> 74.4	0.292	1.75	0.847	9.43	0.511	> 100	6.66	> 100	0.461	> 100	1.68	> 100	0.409	3.08	0.247	> 22.7	> 26.8	2.31
O=C(O)/C=C/C(=O)N1Cc2cc3ccccc3nc2C1	–	> 100	–	> 100	–	> 100	–	> 100	–	> 100	–	> 100	–	> 100	–	> 100	–	> 100	> 100	–
C=C(C)[C@@H]1CC[C@]2(COCCC#N)CC[C@]3(C)[C@H](CC[C@@H]4[C@@](C)(CCCNCCC#N)[C@H](C(=C)C)CC[C@]43C)[C@@H]12	7.13	15.6	8.47	20.5	8.42	16.2	16.5	> 50	13.4	44.1	> 50	> 50	16	> 50	19.8	> 50	10.7	> 50	18.5	8.88

Compound	GI50 (CAKI-1 renal) [µM]	TGI (CAKI-1 renal) [µM]	GI50 (HL-60(TB) leukemia) [µM]	TGI (HL-60(TB) leukemia) [µM]	GI50 (MALME-3M melanoma) [µM]	TGI (MALME-3M melanoma) [µM]	GI50 (NCI-H23 lung) [µM]	TGI (NCI-H23 lung) [µM]	GI50 (OVCAR-5 ovarian) [µM]	TGI (OVCAR-5 ovarian) [µM]	GI50 (SK-OV-3 ovarian) [µM]	TGI (SK-OV-3 ovarian) [µM]	GI50 (TK-10 renal) [µM]	TGI (TK-10 renal) [µM]	GI50 (UACC-257 melanoma) [µM]	TGI (UACC-257 melanoma) [µM]	GI50 (UO-31 renal) [µM]	TGI (UO-31 renal) [µM]	TGI (NCI-H226 lung) [µM]	GI50 (NCI-H226 lung) [µM]
Cc1ccc(Cl)cc1Nc1nc(C(F)(F)F)ccc1C(=O)N/N=C/c1cccnc1	2.14	9.02	1.5	> 46	1.27	8.27	5.6	20.3	3.44	17.1	3.31	15.9	1.32	8.89	3.15	10.1	3.51	16.2	12.4	2.38
COc1ccccc1NC(=O)C1=C(C)NC(C)=C(C(=O)Nc2ccccc2OC)C1C1=CC=COC1	–	56.8	–	10.7	–	> 100	–	> 100	–	> 100	–	71.2	–	61.6	–	68.3	–	> 100	> 100	–
COC1=CC(c2ccc[nH]2)=N/C1=C\c1[nH]c(C)c(CC(=O)OCc2ccccc2)c1CCC(=O)OCc1ccccc1	0.343	2.21	0.49	2.66	0.886	2.62	0.546	4.45	1.26	6.12	0.523	3.11	0.406	2.1	0.721	3.1	0.21	0.577	2.3	0.335
CCN(CC)CC(C)(C)C(=O)/C=C/c1cccc(/C=C/C(=O)C(C)(C)CN(CC)CC)c1	–	0.965	–	–	–	3.11	–	2.7	–	2.98	–	2.79	–	2.35	–	2.66	–	3.17	3.38	–
C=C1CC2CCCC12C=O (stereo not given)	–	> 10	–	> 10	–	> 10	–	> 10	–	–	–	> 10	–	> 10	–	> 10	–	–	–	–
O=C1/C(=N\O)c2ccccc2S1(=O)=O	–	83.7	–	> 100	–	> 100	–	–	–	> 100	–	> 100	–	> 100	–	> 100	–	> 100	> 100	–
N.N.NCCCCCN.O=C([O-])CCl.O=C([O-])CCl.O=C([O-])CCl.O=C([O-])CCl.[Pt+4].[Pt+4]	1.2	7.55	1.43	11.2	11.9	39.2	–	–	5.54	48.9	8.01	48.1	26.4	> 100	9.12	94.6	4.23	17.9	3.9	0.857
Cc1cc([N+](=O)[O-])ccc1NC(=O)C(=O)C(C(=O)c1ccccc1-c1ccccc1)C1OC(=O)c2ccccc21 (stereo not given)	–	59.5	–	–	–	29.9	–	80	–	28.9	–	65.6	–	33.8	–	86.5	–	31.3	28.5	–
O=C(c1ccco1)c1nc2cc(C(F)(F)F)ccc2nc1C(F)(F)F	> 100	> 100	22.2	69.2	> 100	> 100	> 100	> 100	> 100	> 100	> 100	> 100	> 100	> 100	> 100	> 100	> 100	> 100	–	–
COc1c(C)cc(O)cc1C=O	–	> 100	–	> 100	–	> 100	–	–	–	> 100	–	> 100	–	> 100	–	> 100	–	> 100	> 100	–
O=C1c2[nH]cc(CNC3CN4CCC3CC4)c2C(=O)c2c1c(O)c1ccccc1c2O (stereo not given)	0.612	2.05	–	–	2.78	7.14	–	–	2.01	3.78	3.71	20.1	0.266	1.19	31.7	> 76.3	3.66	21.4	41.4	16.3
CCOC(=O)c1ccc(Nc2sc(C(=O)c3ccc(Br)cc3)c(N)c2C#N)cc1	1.73	> 100	0.421	> 25.2	3.66	> 100	14.3	> 100	5.66	> 100	1.04	> 100	–	–	6.19	> 100	1.93	> 100	> 100	19.2
COc1cccc2ccc(C(=O)c3ccccc3)nc12	–	> 100	–	–	–	> 100	–	> 100	–	> 100	–	–	–	> 100	–	–	–	–	> 100	–
Cc1c(O)c2ccccc2oc1=O	–	> 100	–	> 100	–	> 100	–	> 100	–	> 100	–	–	–	–	–	> 100	–	> 100	> 100	–
COC1OC(CO)C(O)C(OC(C)=O)C1NC(=O)N(CCCl)N=O (stereo not given)	–	> 100	–	> 100	–	> 100	–	> 100	–	> 100	–	> 100	–	> 100	–	> 100	–	–	> 100	–
